Reference: patent EP0332332B1, “Hypoglycemic thiazolidinedione derivatives” (PFIZER INC., priority 1988, dated 1989)

System: C57 BL/6J-ob/ob mice
Assay: test for hypoglycemic effect in ob/ob mice
Type: in vivo
Settings: plasma glucose on day 5, ob/ob mice dosed daily for five days, 50 mg/kg in 0.25% w/v methyl cellulose; value given as an example (e.g.)
Excerpt: The present compounds of the formula (I) are readily adapted to clinical use as hypoglycemic or hypocholesterolemic agents. The activity required for this former clinical use is defined by the test for hypoglycemic effect in ob/ob mice by the following procedure:
Five to eight week old C57 BL/6J-ob/ob mice (obtained from Jackson Laboratory, Bar Harbor, Maine) were housed five per cage under standard animal care practices. After a one week acclimation period, the animals were weighed and 25 microliters of blood was collected via an ocular bleed prior to any treatment. The blood sample was immediately diluted 1:5 with saline containing 2.5 mg/ml sodium fluoride and 2% sodium heparin, and held on ice for metabolite analysis. […] The supernatant was analyzed for glucose, for example, by the ABA 200 Bichromatic Analyzer™, using the A-gent™ glucose UV reagent system* (hexokinase method) using 20, 60 and 100 mg/dl standards. Plasma glucose was then calculated by the equation, Plasma glucose (mg/dl) = Sample value x 5 x 1.67 = 8.35 x Sample value [formula] where 5 is the dilution factor and 1.67 is the plasma hematocrit adjustment (assuming the hematocrit is 40%). ™A registered trademark of Abbott Laboratories, Diagnostics Division, 820 Mission Street, So. […]

For `CC1(COc2ccc(CC3SC(=O)NC3=O)cc2)CCCCC1` (stereo not shown) [positive control, ciglitazone], the glucose levels was roughly 130 mg/dL.
